Laboratory results from patent US20220401592A1, “LOW MOLECULAR WEIGHT AND POLYAMIDOAMINE (PAMAM) DENDRIMER BASED PSMA-SPECIFIC DUAL CONTRAST AGENTS FOR OPTICAL AND PHOTOACOUSTIC IMAGING AND THERANOSTIC AGENTS FOR TREATING PROSTATE CANCER” (priority 2021, published 2022).

How the values were obtained:
PSMA+ PC3 PIP tumors = experiment: In vivo photoacoustic imaging, PSMA+ PC3 PIP tumors; design: species or system NOD-SCID mice
[1] = PA tubing phantom experiment; settings: for RPAmax, ratio of maximum PA intensity in NIR range (with respect to I at 770 nm): 700-900 nm in steps of 10 nm; for RPAmax, ratio of maximum PA intensity in NIR range (with respect to I at 770 nm) / RPA780, ratio of photoacoustic intensity at 780 nm (to conjugate I): same amount of Cy7.5 dye; for PB: abbreviation not defined in the footnote
Method: (§1) All conjugates were formulated into 600 μL sample containing 2.88-nmol Cy7.5 dye. Then, each sample was equally split into three for spectrophotometric, spectrofluorometric, and PA tests, respectively. To obtain the excitation wavelength for fluorescence evaluation as well as estimating the shape of PA spectra, optical absorbance of all conjugates was first tested on a UIV-Vis spectrophotometer. A range from 650 nm to 950 nm (slightly wider than the tunable stable wavelength range on a Nd:YAG OPO laser, i.e., 700 nm to 900 nm) in step of 1 nm was selected. […] Due to the emission limit on the spectrofluorometer (up to 850 nm), the excitation for spectrofluorometry was set at 715 nm, and the emission was set from 750 nm to 850 nm in step of 1 nm. […] Specifically, to avoid the interference of photobleaching wavelengths from 700 nm to 900 nm in step of 10 nm were tested in PA tubing phantom experiment.

[2] = Spectrofluorometric test (fluorescence quenching) of conjugates; settings: excitation 715 nm, emission 750-850 nm; samples with the same amount of Cy7.5 dye; normalized to conjugate I
Method: as §1

[3] = test system: PSMA+ PC3 PIP and PSMA-PC3 flu xenografts; experiment: NIR optical imaging, in vivo and ex vivo, of tumor-bearing mice; design: species or system NOD-SCID mice; settings: for preferential accumulation in PSMA+ PC3 PIP tumors vs PSMA-PC3 flu tumors (optical imaging): whole-body NIR imaging, 800 nm channel
PSMA-PC3 flu tumors = experiment: In vivo photoacoustic imaging, PSMA-PC3 flu tumors; design: species or system NOD-SCID mice
Excerpt: To evaluate potential application of the conjugates in photoacoustic imaging, mice used in optical imaging (described in optical imaging section) were imaged using the Nd:YAG OPO laser and Verasonics Vantage 256 ultrasound research platform. […] Under the assumption that different tissue types yield linearly independent PA signal, the two-dimensional (axial and lateral) PA images of the exogeneous imaging agent (conjugate VI) were decomposed from the acquired three-dimensional photoacoustic volume (axial, lateral, and spectral) using non-negative least squares models. The same speed of sound was considered in the beam formation of US and PA imaging. Thus, the two imaging modalities were co-registered by nature. On top of that, image fusion of the two was achieved by using Daubechies 2 wavelet in wavelet transform.
To record background for PA signal mice were imaged before administration of […] and 5, 24, 48, and 72 h after injection (ai). The average PA intensities within the region-of-interest (ROI) of PSMA^+ PC3 normalized with respect to the pre-administration baseline PIP were 25.1±11.0, 30.2±21.1, and 21.8±7.4 at 24, 48 and 72 h ai, respectively. The average PA image intensities within the ROI of PSMA-PC3 flu were 4.2±4.3, 5.9±2.5, 3.8±1.3 (a.u.) at the same time points. […] The normalized PA image intensities of PSMA^+ PC3 PIP tumors were 1.1±0.9, 3.8±4.1, and 1.6±1.4 (a.u.) at 24, 48 and 72 h ai, respectively, and of PSMA-PC3 flu tumors were 2.0±0.9, 3.4±2.4, and 0.9±0.7 (a.u.), respectively.

PSMA [4] = biological target: T1, PSMA (Homo sapiens, UniProt Q04609); experiment: In vitro binding assay of conjugates with PSMA+ PC3 PIP cells (vs PSMA- PC3 flu cells); design: expressed in transfected cells; host or cells: PSMA+ PC3 PIP (human prostate cancer PC3 subline); PSMA- PC3 flu as negative control; settings: for Kd: PSMA+ PC3 PIP cells, fluorescence intensity vs concentration, read-out: Kd, dissociation constant
Target sequence in this assay (Q04609 whole entry): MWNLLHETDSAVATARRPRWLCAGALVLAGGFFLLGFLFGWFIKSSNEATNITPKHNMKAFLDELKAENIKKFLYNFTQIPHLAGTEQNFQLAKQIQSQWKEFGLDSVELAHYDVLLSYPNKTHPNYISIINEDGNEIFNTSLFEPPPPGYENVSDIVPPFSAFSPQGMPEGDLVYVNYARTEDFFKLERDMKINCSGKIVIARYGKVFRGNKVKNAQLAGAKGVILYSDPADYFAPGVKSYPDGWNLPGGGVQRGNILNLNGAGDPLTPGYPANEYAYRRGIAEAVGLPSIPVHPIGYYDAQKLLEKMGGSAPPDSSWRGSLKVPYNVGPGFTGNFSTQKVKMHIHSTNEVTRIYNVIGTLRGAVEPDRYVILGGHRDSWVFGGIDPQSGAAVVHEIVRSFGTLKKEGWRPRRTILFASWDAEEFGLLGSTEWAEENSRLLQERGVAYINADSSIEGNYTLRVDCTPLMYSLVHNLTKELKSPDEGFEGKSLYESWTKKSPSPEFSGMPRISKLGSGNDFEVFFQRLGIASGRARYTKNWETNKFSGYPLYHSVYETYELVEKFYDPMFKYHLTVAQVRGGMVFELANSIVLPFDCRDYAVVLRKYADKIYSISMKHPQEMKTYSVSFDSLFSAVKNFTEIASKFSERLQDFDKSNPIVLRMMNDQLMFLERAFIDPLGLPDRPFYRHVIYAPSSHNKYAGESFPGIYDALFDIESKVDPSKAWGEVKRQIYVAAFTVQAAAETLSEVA

PSMA [5] = biological target: T1, PSMA; settings: cited from earlier work
Target sequence in this assay (Q04609 whole entry, species assumed): as the sequence (Q04609 whole entry) above

[6] = Spectrophotometric test (UV-Vis optical absorbance) of conjugates
Method: as §1

Row | Compound | average PA intensity within ROI of PSMA+ PC3 PIP, normalized to pre-injection baseline (PSMA+ PC3 PIP tumors; 24 h after injection) [a.u.] | average PA intensity within ROI of PSMA+ PC3 PIP, normalized to pre-injection baseline (PSMA+ PC3 PIP tumors; 48 h after injection) [a.u.] | average PA intensity within ROI of PSMA+ PC3 PIP, normalized to pre-injection baseline (PSMA+ PC3 PIP tumors; 72 h after injection) [a.u.] | RPAmax, ratio of maximum PA intensity in NIR range (with respect to I at 770 nm) [1] [%] | RPA780, ratio of photoacoustic intensity at 780 nm (to conjugate I) [1] [%] | PB [1] [%/sec] | QR (quenching rate) [2] [%] | ex vivo fluorescence intensity PSMA+ PC3 PIP/PSMA-PC3 flu ratio ([3]; dissected tissues 72 h after injection of 100 μg (3.72 nmol)) | preferential accumulation in PSMA+ PC3 PIP tumors vs PSMA-PC3 flu tumors (optical imaging) [3] | average PA image intensity within ROI of PSMA-PC3 flu (PSMA-PC3 flu tumors; 24 h after injection) [a.u.] | average PA image intensity within ROI of PSMA-PC3 flu (PSMA-PC3 flu tumors; 48 h after injection) [a.u.] | average PA image intensity within ROI of PSMA-PC3 flu (PSMA-PC3 flu tumors; 72 h after injection) [a.u.] | uptake by PSMA+ PC3 PIP cells compared to PSMA-PC3 flu cells (PSMA [4]) | Kd (PSMA [4]) [µM] | specific uptake by PSMA+ PC3 PIP in presence of an excess of ZJ-43 (PSMA [4]; excess of ZJ-43 (PSMA antagonist)) | internalization in PSMA+ PC3 PIP cells compared to PSMA-PC3 flu cells (PSMA [4]; microscopic evaluation) | affinity to PSMA (PSMA [5]) | absorbance relative to I below 750 nm [6] | ratio of PA intensity to I in 790-900 nm range ([1]; maximum ratio, at 860 nm) [%]
1 | G4(Cy7.5)6(SA-KEU)9(Bdiol)53 [Conjugate IV] | 25.1±11.0 | 30.2±21.1 | 21.8±7.4 | 48.1 | 49.0 | 0.037 | 4.4 | 6.2 | highly specific accumulation | 4.2±4.3 | 5.9±2.5 | 3.8±1.3 | significantly higher uptake | 0.41 | inhibited | significantly higher internalization | – | – | –
2 | NCCCCC(NC(=O)NC(CCC(=O)O)C(=O)O)C(=O)O (stereo not drawn) [KEU, Lys-Glu-urea] | – | – | – | – | – | – | – | – | – | – | – | – | – | – | – | – | picomolar | – | –
3 | G4(NH2)(Cy7.5)4(SA-KEU)9(Bdiol)30 [Conjugate III] | – | – | – | 20.6 | 20.9 | 0.049 | 174.9 | – | – | – | – | – | – | 0.27 | – | – | – | – | –
4 | G4(NH2)20(Cy7.5)2(SA-KEU)10(Bdiol)32 [Conjugate II] | – | – | – | 30.3 | 30.8 | 0.043 | 76.4 | – | – | – | – | – | – | 0.68 | – | – | – | – | –
5 | CN1/C(=C/C=C2C=C(/C=C/C3=[N+](CCCCCC(=O)NCCCC[C@H](NC(=O)CCCCCCC(=O)NCCCC[C@H](NC(=O)N[C@@H](CCC(=O)O)C(=O)O)C(=O)O)C(=O)O)c4ccc5c(S(=O)(=O)O)cc(S(=O)(=O)O)cc5c4C3(C)C)CCC/2)C(C)(C)c2c1ccc1c(S(=O)(=O)[O-])cc(S(=O)(=O)O)cc21 [Conjugate I] | 21.6±16.8 | 12.7±5.2 | 10.0±4.8 | – | – | – | – | – | preferential accumulation | 1.9±1.4 | 19±0.9 | 2.0±1.1 | – | 0.78 | – | – | – | – | –
6 | G4(NH2)13(Cy7.5)6(Bdiol)45 [Conjugate VI] | 1.1±0.9 | 3.8±4.1 | 1.6±1.4 | 44.6 | 45.4 | – | 26.6 | – | did not show preferential uptake | 2.0±0.9 | 3.4±2.4 | 0.9±0.7 | – | – | – | – | – | – | –
7 | G4(Cy7.5)s(SA-KEU)12(Bdiol)52 [Conjugate V] | – | – | – | 111.1 | 97.5 | 0.057 | 1.3 | – | – | – | – | – | – | 0.078 | – | – | – | up to 1.8 times | ≤ 1257.44
